Test results as given in article PMC12655621 (Pharmaceuticals, 2025).

Legend:
[1] = Shake-flask logD7.4 n-octanol/PBS; format: physicochemical; conditions: n-octanol/PBS pH 7.4, shake-flask, room temperature
Protocol: A PBS (pH 7.4) solution was saturated with n-octanol, and n-octanol was saturated with PBS (pH 7.4) by vigorous shaking, followed by equilibration for at least 24 h to ensure complete phase separation. The reference compound 4-chloro-6,7-bis(2-methoxyethoxy)quinazoline and analogs 1–7 were dissolved in the octanol phase (previously saturated with PBS), and equal volumes of the aqueous phase (previously saturated with octanol) were added. Final assay solutions were prepared at 10 μM by diluting 2 μL of a 5 mM stock solution into 1 mL of total volume. The biphasic mixtures were shaken for 24 h at room temperature. After equilibration, both the octanolic and aqueous phases were analyzed by UV–visible spectrophotometry using a Shimadzu UV-1603. […] LogD7.4 values were calculated as […]. Each determination was performed in triplicate. Regression analyses and curve fittings were performed using GraphPad Prism 8.0 software (GraphPad Software Inc., LaJolla, CA, USA).

U87 MG = system: U87 MG; parameters: method as in earlier work; conditions: human U87 MG glioma cells; errors omitted; ref 19 (compounds 8 and 9: ref 13); cited from earlier work
F98 = system: F98; parameters: method as in earlier work; conditions: F98 rat glioma cells; errors omitted; ref 19 (compounds 8 and 9: ref 13); cited from earlier work
C6 = system: C6; parameters: method as in earlier work; conditions: C6 glioma cells; errors omitted; ref 19 (compounds 8 and 9: ref 13); cited from earlier work
[2] = system: Mix of primary glial cell culture; parameters: method as in earlier work; conditions: mix of primary glial cell culture (healthy cells); errors omitted; ref 19 (compounds 8 and 9: ref 13); cited from earlier work

| logD at 24 h [1] | SMILES | IC50 (U87 MG) | IC50 (F98) | IC50 (C6) | IC50 [2] |
| --- | --- | --- | --- | --- | --- |
| 1.02 | COCCOc1cc2ncnc(Cl)c2cc1OCCOC [4-chloro-6,7-bis(2-methoxyethoxy)quinazoline] | – | – | – | – |
| – | C#Cc1cccc(Nc2ncnc3cc(OCCOC)c(OCCOC)cc23)c1 [Erl, erlotinib] | 63 µM | > 100 µM | > 100 µM | > 100 µM |
